In ChEMBL document CHEMBL6078666, “Discovery of Novel Coumarin Pleuromutilin Derivatives as Potent Anti-MRSA Agents” (J Med Chem, 2024):
In brackets after ≈: the same amount, converted by molar mass.

Key:
Assay type in all cases: functional
Staphylococcus aureus [1] = test: Ratio of MBC to MIC against Staphylococcus aureus ATCC 43300
Enterococcus faecium [2] = test: Ratio of MBC to MIC against vancomycin-resistant Enterococcus faecium ATCC 700221
[3] = tested on: Staphylococcus epidermidis; test: Ratio of MBC to MIC against Staphylococcus epidermidis ATCC 51625
[4] = tested on: Staphylococcus epidermidis; test: Antibacterial activity against Staphylococcus epidermidis ATCC 51625 assessed as bacterial growth inhibition measured after 20 hrs by broth dilution method
Enterococcus faecium [5] = test: Antibacterial activity against vancomycin-resistant Enterococcus faecium ATCC 51559 assessed as bacterial growth inhibition measured after 20 hrs by broth dilution method
Enterococcus faecium [6] = test: Ratio of MBC to MIC against vancomycin-resistant Enterococcus faecium ATCC 51559
Enterococcus faecium [7] = test: Antibacterial activity against vancomycin-resistant Enterococcus faecium ATCC 700221 assessed as bacterial growth inhibition measured after 20 hrs by broth dilution method
Staphylococcus aureus [8] = test: Antibacterial activity against methicillin-resistant Staphylococcus aureus ATCC 43300 assessed as bacterial growth inhibition measured after 20 hrs by broth dilution method
Staphylococcus aureus [9] = test: Antibacterial activity against methicillin-resistant Staphylococcus aureus ATCC 33591 assessed as bacterial growth inhibition measured after 20 hrs by broth dilution method
Streptococcus pneumoniae [10] = test: Ratio of MBC to MIC against penicillin-intermediate Streptococcus pneumoniae ATCC 49619
Streptococcus pneumoniae [11] = test: Antibacterial activity against penicillin-intermediate Streptococcus pneumoniae ATCC 49619 assessed as bacterial growth inhibition measured after 20 hrs by broth dilution method
Streptococcus pneumoniae [12] = test: Antibacterial activity against penicillin-resistant Streptococcus pneumoniae ATCC 51916 assessed as bacterial growth inhibition measured after 20 hrs by broth dilution method
Streptococcus pneumoniae [13] = test: Ratio of MBC to MIC against penicillin-resistant Streptococcus pneumoniae ATCC 51916
Staphylococcus aureus [14] = test: Ratio of MBC to MIC against methicillin-resistant Staphylococcus aureus ATCC 33591

Compound	Ratio (Staphylococcus aureus [1])	Ratio (Enterococcus faecium [2])	Ratio [3]	MIC [4] [µg/mL]	MIC (Enterococcus faecium [5]) [µg/mL]	Ratio (Enterococcus faecium [6])	MIC (Enterococcus faecium [7]) [µg/mL]	MIC (Staphylococcus aureus [8]) [µg/mL]	MIC (Staphylococcus aureus [9]) [µg/mL]	Ratio (Streptococcus pneumoniae [10])	MIC (Streptococcus pneumoniae [11]) [µg/mL]	MIC (Streptococcus pneumoniae [12]) [µg/mL]	Ratio (Streptococcus pneumoniae [13])	Ratio (Staphylococcus aureus [14])
C=C[C@]1(C)C[C@@H](OC(=O)CSCCOc2cc(=O)oc3cc(F)ccc23)[C@]2(C)[C@H](C)CC[C@]3(CCC(=O)[C@H]32)[C@@H](C)[C@@H]1O	>4	>4	>4	0.031 (≈ 0.0516 µM)	0.25 (≈ 0.416 µM)	2	0.125 (≈ 0.208 µM)	0.125 (≈ 0.208 µM)	0.125 (≈ 0.208 µM)	>4	0.25 (≈ 0.416 µM)	0.125 (≈ 0.208 µM)	–	–
C=C[C@]1(C)C[C@@H](OC(=O)CSCCOc2cc(=O)oc3ccc([N+](=O)[O-])cc23)[C@]2(C)[C@H](C)CC[C@]3(CCC(=O)[C@H]32)[C@@H](C)[C@@H]1O	>4	2	>4	0.031 (≈ 0.0494 µM)	0.25 (≈ 0.398 µM)	2	0.063 (≈ 0.1 µM)	0.125 (≈ 0.199 µM)	0.125 (≈ 0.199 µM)	2	0.063 (≈ 0.1 µM)	0.063 (≈ 0.1 µM)	>4	–
C=C[C@]1(C)C[C@@H](OC(=O)CSc2cc(=O)oc3ccc(Cl)cc23)[C@]2(C)[C@H](C)CC[C@]3(CCC(=O)[C@H]32)[C@@H](C)[C@@H]1O	>4	>4	>4	0.063 (≈ 0.11 µM)	0.5 (≈ 0.872 µM)	2	0.125 (≈ 0.218 µM)	0.25 (≈ 0.436 µM)	0.125 (≈ 0.218 µM)	2	0.125 (≈ 0.218 µM)	0.125 (≈ 0.218 µM)	4	–
C=C[C@]1(C)C[C@@H](OC(=O)CSCCOc2cc(=O)oc3ccc(Cl)cc23)[C@]2(C)[C@H](C)CC[C@]3(CCC(=O)[C@H]32)[C@@H](C)[C@@H]1O	>4	>4	>4	0.125 (≈ 0.203 µM)	1 (≈ 1.62 µM)	>4	1 (≈ 1.62 µM)	0.5 (≈ 0.81 µM)	0.5 (≈ 0.81 µM)	>4	4 (≈ 6.48 µM)	2 (≈ 3.24 µM)	–	–
C=C[C@]1(C)C[C@@H](OC(=O)CSc2cc(=O)oc3ccc(OC)cc23)[C@]2(C)[C@H](C)CC[C@]3(CCC(=O)[C@H]32)[C@@H](C)[C@@H]1O	2	>4	>4	0.063 (≈ 0.111 µM)	0.125 (≈ 0.22 µM)	2	0.063 (≈ 0.111 µM)	0.125 (≈ 0.22 µM)	0.125 (≈ 0.22 µM)	>4	0.125 (≈ 0.22 µM)	0.125 (≈ 0.22 µM)	–	4
C=C[C@]1(C)C[C@@H](OC(=O)CSc2cc(=O)oc3ccc(C)cc23)[C@]2(C)[C@H](C)CC[C@]3(CCC(=O)[C@H]32)[C@@H](C)[C@@H]1O	>4	4	>4	0.063 (≈ 0.114 µM)	2 (≈ 3.62 µM)	2	0.25 (≈ 0.452 µM)	0.125 (≈ 0.226 µM)	0.125 (≈ 0.226 µM)	4	0.25 (≈ 0.452 µM)	0.125 (≈ 0.226 µM)	>4	–
C=C[C@]1(C)C[C@@H](OC(=O)CSCCOc2cc(=O)oc3cc(C)ccc23)[C@]2(C)[C@H](C)CC[C@]3(CCC(=O)[C@H]32)[C@@H](C)[C@@H]1O	>4	2	4	0.063 (≈ 0.106 µM)	0.25 (≈ 0.419 µM)	1	0.125 (≈ 0.209 µM)	0.25 (≈ 0.419 µM)	0.125 (≈ 0.209 µM)	2	0.125 (≈ 0.209 µM)	0.25 (≈ 0.419 µM)	4	–
C=C[C@]1(C)C[C@@H](OC(=O)CSCCOc2cc(=O)oc3ccc(Br)cc23)[C@]2(C)[C@H](C)CC[C@]3(CCC(=O)[C@H]32)[C@@H](C)[C@@H]1O	2	2	>4	0.25 (≈ 0.378 µM)	16 (≈ 24.2 µM)	2	1 (≈ 1.51 µM)	1 (≈ 1.51 µM)	0.25 (≈ 0.378 µM)	>4	2 (≈ 3.02 µM)	2 (≈ 3.02 µM)	4	>4
